Experimental data taken from patent US10544095B2 (Pfizer Inc., priority 2015, dated 2020).

The compounds below were run against hTDO2 in human glioblastoma A172 cells (Homo sapiens (Human), UniProt P48775) (assay: Cellular assay for TDO2 activity determination in A172 cells). Settings: overnight incubation, kynurenine absorbance at 480 nm.
Assay type: cell-based
Description: The compounds of formula I inhibit the activity of human TDO2 in cells that constitutively express TDO2, such as A172 cells. A172 is a cell line derived from human brain glioblastoma cells. The cells are available from the American Type Culture Collection (ATCC®) as CRL-1620™.
The assay (adapted from Pilotte L et al., Proc Natl Acad Sci USA, 2012, 109(7), 2497-502) was performed in 96-well flat bottom plates seeded with human glioblastoma A172 cells, naturally expressing hTDO2 (prepared as described in Tilman et al., Mol Cancer, 2007, 17(6), 80), at a concentration of 1.25×10^4 cells/well in a final volume of 200 μL. To determine TDO, the cells were incubated overnight at 37° C. at 5% CO2 in IMDM (Invitrogen) supplemented with 2% FBS and 2% penicillin/streptomycin in the presence of the compounds of the present invention, at different concentrations.
The plates were then centrifuged 5 min at 1000 rpm, and 100 μL of the supernatant were collected in a conical plate, 30 μL of TCA 30% were added and a further centrifuged at 3000×g for 10 minutes. 100 μL of the supernatant were collected in a flat bottomed plate and 100 μL of 2% (w/v) 4-(dimethylamino)-benzaldehyde in acetic acid and incubated for 5 min at room temperature. Kynurenine concentrations were determined by measuring the absorbance at 480 nm. A standard curve was made with pure kynurenine. The TDO activity was measured as described above using ten serial concentrations of the compounds of the present invention. Data were fitted using the Prism™ software (GraphPad Software, Inc.) using standard parameters.

Sequence of hTDO2 in human glioblastoma A172 cells (P48775 whole entry): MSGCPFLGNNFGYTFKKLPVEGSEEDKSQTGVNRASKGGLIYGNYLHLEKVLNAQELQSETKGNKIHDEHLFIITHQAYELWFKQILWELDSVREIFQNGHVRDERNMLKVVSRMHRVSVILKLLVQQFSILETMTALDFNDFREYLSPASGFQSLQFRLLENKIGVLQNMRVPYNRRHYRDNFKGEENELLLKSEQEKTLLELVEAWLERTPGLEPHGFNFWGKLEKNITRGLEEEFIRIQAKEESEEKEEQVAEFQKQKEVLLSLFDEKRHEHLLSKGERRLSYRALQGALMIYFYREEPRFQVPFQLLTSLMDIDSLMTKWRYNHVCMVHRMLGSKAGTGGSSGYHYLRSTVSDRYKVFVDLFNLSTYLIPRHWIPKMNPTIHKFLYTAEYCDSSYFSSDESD

| SMILES | IC50 |
| --- | --- |
| NS(=O)(=O)c1ccc(-c2c[nH]c3cc(F)ccc23)cc1CO [Example 176, 4-(6-fluoro-1H-indol-3-yl)-2-(hydroxymethyl)benzenesulfonamide] | 55 nM |
| O=S(=O)(c1ccc(-c2c[nH]c3cc(F)ccc23)cc1)N1C[C@@H](F)C[C@@H]1CO [Example 126, ((2R,4S)-4-fluoro-1-((4-(6-fluoro-1H-indol-3-yl)phenyl)sulfonyl)pyrrolidin-2-yl)methanol] | 145 nM |
| N[C@@H]1CN(S(=O)(=O)c2ccc(-c3c[nH]c4cc(F)ccc34)cc2)C[C@@H]1F [Example 83, (−)-(cis)-4-fluoro-1-((4-(6-fluoro-1H-indol-3-yl)-phenyl)sulfonyl)-pyrrolidin-3-amine] | 110 nM |
| N[C@H]1CN(C(=O)CCNS(=O)(=O)c2ccc(-c3c[nH]c4cc(F)ccc34)cc2)C[C@@H]1F [Example 105, (−)-N-(3-((3S,4S)-3-amino-4-fluoropyrrolidin-1-yl)-3-oxopropyl)-4-(6-fluoro-1H-indol-3-yl)benzenesulfonamide] | 220 nM |
| O=S(=O)(c1ccc(-c2c[nH]c3cc(F)ccc23)cc1)N1CCNCC1CO (stereo not drawn) [Example 13, (1-((4-(6-fluoro-1H-indol-3-yl)phenyl)sulfonyl)piperazin-2-yl)methanol] | 210 nM |
| CCc1cc(-c2c[nH]c3cc(F)ccc23)ccc1S(=O)(=O)NCCC(N)=O [Example 162, 3-(2-ethyl-4-(6-fluoro-1H-indol-3-yl)phenylsulfonamido)-propanamide] | 405 nM |
| CN(C)CCc1cc(-c2c[nH]c3cc(F)ccc23)ccc1S(N)(=O)=O [Example 141, 2-(2-(dimethylamino)ethyl)-4-(6-fluoro-1H-indol-3-yl)benzenesulfonamide] | 295 nM |
| O=C(CCNS(=O)(=O)c1ccc(-c2c[nH]c3cc(F)ccc23)cc1)N1CCNCC1 [Example 102, 4-(6-fluoro-1H-indol-3-yl)-N-(3-oxo-3-(piperazin-1-yl)propyl) benzenesulfonamide] | 260 nM |
| O=S(=O)(c1ccc(-c2c[nH]c3cc(F)ccc23)cc1)N1C[C@H](O)[C@@H](O)C1 [Example 66, (3S,4S) 1-[4-(6-Fluoro-1H-indol-3-yl)-benzenesulfonyl]-pyrrolidine-3,4-diol] | 84 nM |
| Cc1nccn1CC1(O)CCCN(S(=O)(=O)c2ccc(-c3c[nH]c4cc(F)ccc34)cc2)C1 (stereo not drawn) [Example 122, 1-((4-(6-fluoro-1H-indol-3-yl)phenyl)sulfonyl)-3-((2-methyl-1H-imidazol-1-yl)methyl) piperidin-3-ol] | 86000 nM |
| O=S(=O)(c1ccc(-c2c[nH]c3cc(F)ccc23)cc1)N1C[C@@H](O)[C@H](O)C1 [Example 74, (3R,4R)-1-((4-(6-fluoro-1H-indol-3-yl)phenyl)-sulfonyl)pyrrolidine-3,4-diol] | 96 nM |
| NC(=O)c1cc(-c2c[nH]c3cc(F)ccc23)ccc1S(=O)(=O)N1CCNCC1 [Example 41, 5-(6-fluoro-1H-indol-3-yl)-2-(piperazin-1-ylsulfonyl)benzamide] | 990 nM |
| CN(CC(O)c1cccnn1)S(=O)(=O)c1ccc(-c2c[nH]c3cc(F)ccc23)cc1 (stereo not drawn) [Example 121, 4-(6-fluoro-1H-indol-3-yl)-N-(2-hydroxy-2-(pyridazin-3-yl)ethyl)-N-methylbenzene-sulfonamide] | 156 nM |
| Cc1ccc(-c2c[nH]c3cc(F)ccc23)cc1S(=O)(=O)NCCN [Example 56, N-(2-aminoethyl)-5-(6-fluoro-1H-indol-3-yl)-2-methylbenzenesulfonamide] | 670 nM |
| CS(=O)(=O)c1ccc(-c2c[nH]c3cc(F)ccc23)cc1CN [Example 178, (5-(6-fluoro-1H-indol-3-yl)-2-(methylsulfonyl)phenyl)methanamine] | 411 nM |
| NS(=O)(=O)c1ccc(-c2c[nH]c3cc(F)ccc23)c(Cl)c1 [Example 136, 3-chloro-4-(6-fluoro-1H-indol-3-yl) benzenesulfonamide] | 271 nM |
| CN(CCCC(N)=O)S(=O)(=O)c1ccc(-c2c[nH]c3cc(F)ccc23)cc1 [Example 54, 4-(4-(6-fluoro-1H-indol-3-yl)-N-methylphenylsulfonamido)-butanamide] | 250 nM |
| Cn1cnnc1CNS(=O)(=O)c1ccc(-c2c[nH]c3cc(F)ccc23)cc1 [Example 92, 4-(6-fluoro-1H-indol-3-yl)-N-[(4-methyl-4H-1,2,4-triazol-3-yl)methyl]-benzenesulfonamide] | 560 nM |
| O=S(=O)(c1ccc(-c2c[nH]c3cc(F)ccc23)cc1)N1CCNC(CO)C1 (stereo not drawn) [Example 12, (4-((4-(6-fluoro-1H-indol-3-yl)phenyl)sulfonyl)piperazin-2-yl)-methanol] | 140 nM |
| O=S(=O)(NCc1ncon1)c1ccc(-c2c[nH]c3cc(F)ccc23)cc1 [Example 156, N-((1,2,4-oxadiazol-3-yl)methyl)-4-(6-fluoro-1H-indol-3-yl)benzenesulfonamide] | 150 nM |

More lines, in order of falling IC50, values ahead:

| IC50 | SMILES |
| --- | --- |
| 1800 nM | Cn1nccc1NS(=O)(=O)c1ccc(-c2c[nH]c3cc(F)ccc23)cc1 [Example 91, 4-(6-fluoro-1H-indol-3-yl)-N-(1-methyl-1H-pyrazol-5-yl)benzenesulfonamide] |
| 630 nM | CCC(=O)n1cc(-c2ccc(S(=O)(=O)N3CCNCC3)cc2)c2ccc(F)cc21 [Example 51, 1-(6-fluoro-3-(4-(piperazin-1-ylsulfonyl)phenyl)-1H-indol-1-yl)-propan-1-one] |
| 570 nM | NCCN1CCN(S(=O)(=O)c2ccc(-c3c[nH]c4cc(F)ccc34)cc2)CC1=O [Example 148, 1-(2-aminoethyl)-4-((4-(6-fluoro-1H-indol-3-yl)phenyl)sulfonyl)piperazin-2-one] |
| 550 nM | CNC(=O)Cc1cc(-c2c[nH]c3cc(F)ccc23)ccc1S(N)(=O)=O [Example 143, 2-(5-(6-fluoro-1H-indol-3-yl)-2-sulfamoylphenyl)-N-methylacetamide] |
| 450 nM | Cc1cc(-c2c[nH]c3cc(F)ccc23)cc(C)c1S(=O)(=O)N1CCNCC1 [Example 71, 3-(3,5-dimethyl-4-(piperazin-1-ylsulfonyl)phenyl)-6-fluoro-1H-indole] |
| 383 nM | N[C@@H]1CN(C(=O)CCNS(=O)(=O)c2ccc(-c3c[nH]c4cc(F)ccc34)cc2)C[C@H]1F [Example 174, (+)-N-(3-((3R,4R)-3-amino-4-fluoropyrrolidin-1-yl)-3-oxopropyl)-4-(6-fluoro-1H-indol-3-yl)benzenesulfonamide] |
| 270 nM | NC(=O)CCNS(=O)(=O)c1ccc(-c2c[nH]c3cc(F)ccc23)cc1C(F)(F)F [Example 168, 3-((4-(6-fluoro-1H-indol-3-yl)-2-(trifluoromethyl)phenyl)-sulfonamido)propanamide] |
| 190 nM | COc1cc(-c2c[nH]c3cc(F)ccc23)ccc1S(=O)(=O)N1CCNCC1 [Example 29, 6-fluoro-3-(3-methoxy-4-(piperazin-1-ylsulfonyl)-phenyl)-1H-indole] |
| 171 nM | C[S+]([O-])CCNS(=O)(=O)c1ccc(-c2c[nH]c3cc(F)ccc23)cc1 (single isomer, unassigned; (+)) [Example 160, (+)-4-(6-fluoro-1H-indol-3-yl)-N-(2-(methylsulfinyl)-ethyl) benzenesulfonamide] |
| 97 nM | O=S(=O)(c1ccc(-c2c[nH]c3cc(F)ccc23)cc1)N1C[C@H](F)C[C@@H]1CO [Example 125, ((2R,4R)-4-fluoro-1-((4-(6-fluoro-1H-indol-3-yl)phenyl)sulfonyl)pyrrolidin-2-yl)methanol] |
